The source of these data is PMC2709817 (Biochemistry, 2009).

Where two headings read alike, the source gives them in different places.

What all share (type): biochemical
For assay [1], the target named is T1, UDP-3-O-(R-3-hydroxyacyl)-N-acetylglucosamine deacetylase LpxC (Escherichia coli, UniProt P0A725).
T1 sequence (P0A725 1-305): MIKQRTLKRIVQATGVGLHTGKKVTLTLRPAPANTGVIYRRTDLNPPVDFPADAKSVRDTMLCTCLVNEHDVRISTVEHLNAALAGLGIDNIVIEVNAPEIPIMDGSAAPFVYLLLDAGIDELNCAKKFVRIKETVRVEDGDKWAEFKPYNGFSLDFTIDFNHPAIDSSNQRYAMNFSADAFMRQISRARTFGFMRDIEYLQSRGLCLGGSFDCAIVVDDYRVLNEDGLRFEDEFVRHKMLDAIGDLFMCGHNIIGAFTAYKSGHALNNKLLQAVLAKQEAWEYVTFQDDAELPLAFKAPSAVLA
Nature of the assay: percent inhibition of purified LpxC at […]. To be noted: read-out: 1-68Aa.

For assay [2], the target named is T2, LpxC (Rhizobium johnstonii, UniProt Q1ME43).
T2 sequence (Q1ME43 1-318): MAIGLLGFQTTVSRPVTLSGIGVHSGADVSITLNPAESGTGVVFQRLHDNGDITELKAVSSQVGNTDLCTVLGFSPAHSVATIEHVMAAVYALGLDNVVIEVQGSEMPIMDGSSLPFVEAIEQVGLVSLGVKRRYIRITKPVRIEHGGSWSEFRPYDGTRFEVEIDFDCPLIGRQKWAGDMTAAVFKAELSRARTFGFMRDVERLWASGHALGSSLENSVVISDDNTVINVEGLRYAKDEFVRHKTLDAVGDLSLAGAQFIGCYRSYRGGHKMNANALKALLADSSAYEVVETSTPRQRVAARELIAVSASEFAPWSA
The experiment in a line: percent inhibition of purified LpxC ortholog at […]. To be noted: read-out: 1-68Aa.

Assay [3] concerns the target T3, LpxC (Helicobacter pylori, UniProt O25692).
T3 sequence (O25692 1-295): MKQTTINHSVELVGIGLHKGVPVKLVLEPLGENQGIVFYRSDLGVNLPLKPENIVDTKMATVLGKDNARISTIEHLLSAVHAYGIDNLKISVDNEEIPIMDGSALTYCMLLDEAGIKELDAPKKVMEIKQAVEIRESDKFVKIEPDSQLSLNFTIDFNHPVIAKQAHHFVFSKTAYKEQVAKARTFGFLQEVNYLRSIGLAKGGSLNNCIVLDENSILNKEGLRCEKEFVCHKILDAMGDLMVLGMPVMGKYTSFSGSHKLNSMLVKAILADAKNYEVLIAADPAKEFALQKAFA
The experiment in a line: percent inhibition of purified LpxC ortholog at […]. To be noted: read-out: 1-68Aa.

In assay [4] the target is T3, LpxC. The experiment in a line: percent inhibition of purified LpxC ortholog at […]. The following applies: read-out: 1-68A.

Regarding `O=c1ccn([C@@H]2O[C@H](CON=Cc3ccc(O)c(O)c3)[C@@H](O)[C@H]2O)c(=O)[nH]1` [1-68Aa, 3,4-Dihydroxy-benzaldehyde O-[5-(2,4-dioxo-3,4-dihydro-2H-pyrimidin-1-yl)-3,4-dihydroxy-tetrahydro-furan-2-ylmethyl]-oxime], the inhibition at 50 µM in assay [1] came to 60%; in assay [2], 49%; in assay [3], 41%.
With `O=c1ccn([C@@H]2O[C@H](CON=Cc3ccc(O)c(O)c3O)[C@@H](O)[C@H]2O)c(=O)[nH]1` [1-68A], in assay [4], the inhibition at 50 µM stood at 21%.
